# Assay results as given in patent publication US20180333386A1, “AGENTS USEFUL FOR TREATING FRIEDREICH'S ATAXIA AND OTHER NEURODEGENERATIVE DISEASES” (IXCHEL PHARMA LLC, priority 2011, published 2018).
# Entries after “also recorded” stand apart in the source; their conditions may differ. Structures can show the parent of a compound that is named as a salt.
# How the values were obtained:
# [1] = system: frataxin (FXN) protein in YG8 FRDA transgenic mouse; experiment: Frataxin level in YG8 FRDA transgenic mouse model (Western blot of cerebellum and splenocytes); type: in vivo; settings: for frataxin in brains and other tissues of the animal model of FRDA: result in words; for FXN expression in vivo, FXN/actin densitometry: hemizygous YG8 mice
# Procedure: Dyclonine increases frataxin levels in vivo. To determine ability of dyclonine to reverse the in vivo FXN protein defect, the YG8 FRDA transgenic mouse model was chosen. Hemizygous animals with the least frataxin were separated into vehicle and treatment groups. Homozygous mice (two copies of FXN gene) were used as positive control. Animals were dosed daily with 1 mg/kg dyclonine via intraperitoneal injection for 6 days. At the end of the study, the animals were sacrificed, and processed for biochemical analysis, i.e. Western blots of treated and vehicle groups of Cerebellum and splenocyte frataxin level. Western blot of cerebellum and splenocytes is shown (FIG. 6A) and densitometry of FXN/actin normalization (FIG. 6B) showing dyclonine induces FXN expression in vivo by 1.5-2 fold.
# Of these 20, 8 were tested in the YG8 transgenic mouse model. […] Animals were dosed daily with 1-10 mg/kg drug via intraperitoneal injection for 6 days. At the end of the study, the animals were sacrificed, and processed for biochemical analysis, i.e. Western blots (protocol above) of treated and vehicle groups of Cerebellum and splenocyte frataxin level. Western blot of cerebellum is shown (FIG. 7B) and densitometry of FXN/actin normalization (FIG. 7A) showing dimethyl fumarate, dyclonine, methylene blue, and nifursol induce FXN expression in vivo by 1.5-2 fold.
# To determine ability of dimethyl fumarate to reverse the in vivo FXN protein defect, the YG8 FRDA transgenic mouse model was chosen. Hemizygous animals with largest FXN defect, were separated into vehicle and treatment groups. Homozygous mice were used as positive control. Animals were dosed daily with 5 mg/kg dimethyl fumarate via intraperitoneal injection for 6 days. A non-specific HDAC inhibitor was used as a positive control, dosed at 1 mg/kg. At the end of the study, the animals were sacrificed, and processed for biochemical analysis, i.e. Western Blots of treated and vehicle groups of cerebellum and splenocyte frataxin level.
# [2] = system: human FRDA patient fibroblasts; experiment: Diamide screening assay: protection of FRDA patient fibroblasts from diamide toxicity (Calcein-AM viability); type: cell-based; settings: for protection from diamide toxicity: 200 micromolar diamide, result in words; for EC50: Homo sapiens, Fibroblast; for EC50 / maximum effect of protection from diamide toxicity, fold increase from baseline: n=3; for maximum effect of protection from diamide toxicity, fold increase from baseline: dose-response
# From the text: The cell-based assay was further optimized for high-throughput screening in 96-well plates, with an excellent screening window and low variability, represented by a Z′ value of 0.75 (n=5) and was used to screen a library of 1600 drugs that have been approved for clinical use in the USA. Drugs that rescued at DMSO mean+two standard deviations were repeated an additional two times. Compounds that rescued in >2 screens advanced to secondary screening, which included replication of protective effect in a concentration-dependent manner, 0.01-10 μM. […] Additional mechanisms are listed below.
# Diamide Screening Method Format: On the day one of the assay, cell density was determined using the Vi-Cell counter, and a volume corresponding to 5,500 human FRDA patient fibroblasts per well was aliquoted into 96-well black/clear poly-d-lysine coated plates in growth media, and the cells were allowed 3 hours to attach. Drugs (10 mM stock in DMSO) are dispensed into wells after an intermediate dilution in PBS, giving a final DMSO concentration of 0.1% using an electronic multichannel pipette. Test compounds were tested at 10 micromolar. There were 8 negative control (0.1% DMSO only) and 8 positive control (300 micromolar DTT) wells on each plate. Plates were incubated at 37 C and 5% CO2 for twenty-four hours after which 200 micromolar diamide was added to all wells. Plates were incubated for an additional 16 hours as before. Cells were washed with PBS and incubated with Calcein-AM cell viability dye (Invitrogen, Carlsbad, Calif., USA) and fluorescence was read with a PolarStar Omega plate reader (BMG LabTech, Cary, N.C.). Hits were scored as Basal Median+3×MAD.
# [3] = system: frataxin deficient 50B11 dorsal root ganglion cell line; experiment: Thiol-antioxidant inhibitors in siRNA-mediated frataxin deficient 50B11 dorsal root ganglion cell line; type: cell-based; settings: for death of neurons with frataxin deficiency on treatment: siRNA frataxin knockdown vs. control
# Procedure: Therefore, 11 inhibitors of these antioxidants were tested in siRNA-mediated frataxin deficient 50B11 dorsal root ganglion cell line. […] The major mitochondrial antioxidant system is thioredoxin reductase. Auranofin is a specific inhibitor of thioredoxin reductase, and diamide is a known oxidizer of thioredoxin. Thus the diamide screen identifies compounds that rescue from thioredoxin reductase deficiency, which include inducers of Nrf2, which are known to induce thioredoxin reductase and other antioxidant functions.
# [4] = system: Nrf2 target antioxidant response element (ARE); experiment: Nrf2/ARE luciferase assay in reporter HeLa cell line; type: cell-based, human; settings: for Nrf2/ARE activity (ARE-luciferase): 24 hours, threshold mean+2× Standard deviation of the vehicle control
# Procedure: To evaluate the mechanism of FXN induction of the […] that protected from diamide, the potency of each to activate the Nrf2 target antioxidant response element (ARE) was evaluated. 10 of the 20 frataxin inducers interacted with the Nrf2 pathway in a significant way, either positively or negatively. The dashed line=mean+2×SD. […] Dyclonine's induction of ARE/Nrf2 activity was dose-dependent (FIG. 13B).
# The Nrf2 reporter HeLa cell line was generated using the Lenti Antioxidant Response Reporter (Qiagen, Valencia, Calif.) system, which expressed firefly luciferase gene and the ARE transcriptional response element. 15,000 cells/well were plated in 90 ul in phenol-free DMEM media in white wall/bottom 96 well plates. Drugs were added and plates incubated at 37 C for 24 hours. 75 microliters of Bright Glo Luciferase Assay Reagent (Promega, Madison, Wis.) with combined lysis solution was added to all wells and allowed to incubate for 5 minutes at room temperature. Luminescence was then read with a PolarStar Omega plate reader (BMG LabTech, Cary, N.C.).
# [5] = system: frataxin (FXN) protein in HeLa cells; experiment: Frataxin protein level in HeLa cells by Western blot; type: cell-based, human
# Procedure: (§1) To test if one mechanism of protection from diamide toxicity for dyclonine was an increase in frataxin protein levels, HeLa cells or FRDA patient lymphoblasts were cultured for 48 hr in the presence of 10 micromolar dyclonine in 6 well dishes. Cells were harvested and whole cell lysates were analyzed by Western blot (protocol below). Representative blots are shown for HeLa cells (FIG. 5A) and FRDA and healthy siblings lymphoblasts (FIG. 5B), as well as densitometry normalization to actin. Dyclonine induction of FXN levels was consistent over multiple experiments (FIG. 5C).
# (§2) Western Blot Protocol: Forty micrograms of whole-cell lysates were analyzed on […] Bis-Tris gels (Invitrogen, Carsbad, Calif., USA). Electrophoresis was carried out according to the manufacturer's instruction. After electrophoresis, the proteins were transferred to nitrocellulose membranes by iBlot device (Invitrogen). The membranes were blocked with blocking buffer (Odyssey, Lincoln, Nebr., USA) for 1 h and incubated overnight with primary antibodies in blocking buffer: anti-frataxin anti-β-actin, tubulin, (Sigma). Afterwards, the membranes were incubated with a corresponding pair of IRDye 680CW- and IRDye 800CW-coupled (Odyssey) secondary antibodies for 1 h. The membranes were washed four times with 1× Tris-buffered saline with Tween 20 and proteins were visualized with a LI-COR infrared imager (Odyssey). The pictures were processed by Odyssey version 3.0 infrared imaging software.
# (§3) An additional hit in the diamide screening assay in FRDA fibroblasts was dimethyl fumarate (protocol above). […] To test if the mechanism of protection from diamide toxicity was an increase in frataxin protein levels, HeLa cells or FRDA patient lymphoblasts were cultured for 48 hr in the presence of 0.03-30 micromolar dimethyl fumarate in 12-well dishes. Cells were harvested and whole cell lysates were analyzed by Western blot (protocol above). Representative blots are shown for HeLa cells (FIG. 9A) and FRDA lymphoblasts (FIG. 9B). FXN was induced 1.37 fold ±0.1 (n=3) in HeLa cells, and 2.4 fold ±0.9 (n=3) in FRDA lymphoblasts.
# [6] = system: frataxin (FXN) protein in FRDA patient lymphoblasts; experiment: Frataxin protein level in FRDA patient lymphoblasts by Western blot; type: cell-based, human; settings: 48 hr
# Procedure: as §1, §2, §3
# An additional hit in the diamide screening assay (protocol above) in FRDA fibroblasts was the phenathiazine, tolonium cl. […] To test if the mechanism of protection from diamide toxicity was an increase in frataxin protein levels, the phenothiazines tolonium cl and methylene blue were tested. […] Cells were harvested and whole cell lysates were analyzed by Western blot (protocol above). […]
# To test if Methylene blue also potentiates DMF-mediated FXN induction, FRDA patient lymphoblasts were cultured for 48 hr in the presence of 3 micromolar dimethyl fumarate and 3 micromolar methylene blue in 6 well dishes. Cells were harvested and whole cell lysates were analyzed by Western blot (protocol above).
# [7] = system: frataxin (FXN) protein in FRDA lymphoblasts; experiment: In-cell Western of FXN in FRDA lymphoblasts (synergy of FXN-inducing drugs); type: cell-based, human; settings: 5 micromolar dyclonine with dose-response of dimethyl fumarate, 48 hours
# Procedure: To evaluate potential synergy of identified FXN-inducing drugs, a dose-response of dimethyl fumarate in the absence or presence of 5 micromolar dyclonine was determined in FRDA lymphoblasts incubated for 48 hours in 96 well plates. Whole cells were fixed and permeabilized and for analyzed using in-cell Western technique (protocol below).
# In-Cell Western Blot Protocol: 50,000 cells/well were plated in black walled clear bottom 96-well poly-d-lysine coated plates. After drug treatment, media was removed by aspiration and cells were fixed by addition of 100 ul/well of 3.7% formaldehyde in PBS. After 30 minutes, fixing solution was removed and 100 ul/well of 0.1% TritonX100 in PBS was added to all wells. After 40 minutes, cells were blocked with 100 ul blocking buffer (Odyssey, Lincoln, Nebr., USA) for 1 h and incubated with primary antibodies in blocking buffer: anti-frataxin (Mitosciences, Eugene, Oreg.) anti-β-actin (Sigma) for one hour. Cells were washed three times with 1× Tris-buffered saline with Tween 20, and then incubated with 100 ul/well of IRDye 680CW- and IRDye 800CW-coupled (Odyssey) secondary antibodies for 1 h. The cells were washed three times with 1× Tris-buffered saline with Tween 20 and signal was visualized with a LI-COR infrared imager (Odyssey). The pictures were processed by Odyssey version 3.0 infrared imaging software.
compound,measurement,setting,value
O=C(N/N=C/c1ccc([N+](=O)[O-])o1)c1cc([N+](=O)[O-])cc([N+](=O)[O-])c1O [nifursol],frataxin in brains and other tissues of the animal model of FRDA,[1],increased frataxin
same,protection from diamide toxicity,[2],neuroprotective
CC(=O)OC[C@H]1O[C@@H]([S-])[C@H](OC(C)=O)[C@@H](OC(C)=O)[C@@H]1OC(C)=O.CCP(CC)CC.[Au+] [auranofin],death of neurons with frataxin deficiency on treatment,[3],died more rapidly
Cc1cc2nc3ccc(N(C)C)cc3[s+]c2cc1N [tolonium cl],EC50,[2],100 ± 10 nM
same,"maximum effect of protection from diamide toxicity, fold increase from baseline",[2],1.9±0.1 fold
CN(C)C(=O)/N=N/C(=O)N(C)C [diamide],death of neurons with frataxin deficiency on treatment,[3],died more rapidly
COC(=O)/C=C/C(=O)OC [dimethyl fumarate],Nrf2/ARE activity (ARE-luciferase),[4],induced Nrf2/ARE activity
same,FXN induction in HeLa cells,"[5]; 48 hr, 0.03-30 micromolar dimethyl fumarate, n=3",1.37 fold
same,significance of FXN induction by concentration,"[5]; at 1, 10 and 30 micromolar dimethyl fumarate, 48 hr (FIG. 9C)",Significant FXN induction
same,"FXN expression in vivo, FXN/actin densitometry","[1]; 5 mg/kg daily intraperitoneal for 6 days, cerebellum, p<0.05",1.5-2 fold
same,frataxin in brains and other tissues of the animal model of FRDA,[1],increased frataxin
same,protection from diamide toxicity,[2],neuroprotective; also recorded: dose-dependent
same,EC50,[2],1300 ± 800 nM
same,"maximum effect of protection from diamide toxicity, fold increase from baseline",[2],1.9±0.2 fold
same,FXN induction in FRDA lymphoblasts,"[6]; 0.03-30 micromolar dimethyl fumarate, n=3",2.4 fold
mepartricin,Nrf2/ARE activity (ARE-luciferase),[4],induced Nrf2/ARE activity
CN(C)c1ccc2nc3ccc(=[N+](C)C)cc-3sc2c1 [methylene blue],frataxin in brains and other tissues of the animal model of FRDA,[1],increased frataxin
same,protection from diamide toxicity,[2],neuroprotective
same,potentiation of DMF-mediated FXN induction,"[6]; 3 micromolar methylene blue with 3 micromolar dimethyl fumarate, Western blot",potentiates DMF FXN induction
same,Fold FXN induction in FRDA lymphoblasts,"[6]; 10 nanomolar methylene blue, n=2",1.7 fold
O[C@@H](CS)[C@@H](O)CS [DTT],reversal of sensitivity to diamide,[3]; frataxin deficient DRG cell line / Friedreich's patient fibroblasts,could be reversed
CCCCOc1ccc(C(=O)CCN2CCCCC2)cc1 [dyclonine],Nrf2/ARE activity (ARE-luciferase),[4],induced Nrf2/ARE activity
same,dose dependence of induction of ARE/Nrf2 activity,[4]; FIG. 13B,dose-dependent
same,frataxin expression in HeLa cells,"[5]; 48 hr, 10 micromolar dyclonine, result in words",Induces Frataxin Expression
same,"FXN expression in vivo, FXN/actin densitometry","[1]; 1 mg/kg daily intraperitoneal for 6 days, cerebellum and splenocytes",1.5-2 fold
same,frataxin in brains and other tissues of the animal model of FRDA,[1],increased frataxin
same,protection from diamide toxicity,[2],protected FRDA cells from diamide induced oxidative stress; also recorded: dose dependent protection
same,potentiation of DMF FXN induction,[7],potentiated DMF FXN induction
same,frataxin expression in FRDA lymphoblasts,"[6]; 10 micromolar dyclonine, result in words",Induces Frataxin Expression
